Holding throughout (format): in vivo
The test system of experiment [1] is Yellow Fever Mosquito (Aedes aegypti, AEDSAE). As to conditions: for YFM rating: Table ABC / ABC-DP rating. An outline of the steps:
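Compounds from DMSO master plates (4000 ppm stock) diluted in 90:10 water/acetone, then dispensed into six replicate plates and infested with ~1-day-old Aedes aegypti larvae in liver-powder water. Held covered at room temperature for 3 days; each well scored for larval mortality and graded on a rating scale.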

The subject of experiment [2] is Green Peach Aphid (Myzus persicae, MYZUPE). In words: Bioassays on Green Peach Aphid (GPA), foliar spray on cabbage seedlings. As to conditions: 72 h. Here is the method:
Certain molecules disclosed in this document were tested against GPA using procedures described in the following example. In the reporting of the results, the “GPA & YFM Rating Table” was used (See Table Section).
Cabbage seedlings grown in 3-inch pots, with 2-3 small (3-5 cm) true leaves, were used as test substrate. The seedlings were infested with 20-50 GPA (wingless adult and nymph stages) one day prior to chemical application. Four pots with individual seedlings were used for each treatment. Test molecules (2 mg) were dissolved in 2 mL of acetone/methanol (1:1) solvent, forming stock solutions of 1000 ppm test molecule. The stock solutions were diluted 5× with 0.025% Tween 20 in water to obtain the solution at 200 ppm test molecule. A hand-held aspirator-type sprayer was used for spraying a solution to both sides of […] leaves until runoff. Reference plants (solvent check) were sprayed with the diluent only containing 20% by volume of acetone/methanol (1:1) solvent. Treated plants were held in a holding room for three days at approximately 25° C. and ambient relative humidity (RH) prior to grading. Evaluation was conducted by counting the number of live aphids per plant under a microscope. Percent control was measured using Abbott's correction formula (W. S. Abbott, “A Method of Computing the Effectiveness of an Insecticide” J. Econ. Entomol. 18 (1925), pp. 265-267) as follows. Corrected % Control=100*(X−Y)/X where X=No. of live aphids on solvent check plants and Y=No. of live aphids on treated plants. The results are indicated in the table entitled “Table ABC: Biological Results” (See Table Section).

Experiment [3] concerns Cabbage Looper (Trichoplusia ni, TRIPNI). In words: Bioassays on Cabbage Looper (CL), 128-well diet tray assay. As to conditions: Trichoplusia ni. An outline of the steps: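 Test molecule was dissolved in 90:10 acetone-water, applied to artificial diet at 50 μg/cm^2 and allowed to dry. Second-instar larvae were then added, one to five per well, and trays held at 25° C for five to seven days before mortality was scored and averaged.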

The subject of experiment [4] is Beet Armyworm (Spodoptera exigua, LAPHEG). In words: Bioassays on Beet Armyworm (BAW), 128-well diet tray assay. As to conditions: Spodoptera exigua. An outline of the steps: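 Second-instar larvae, one to five per well, were placed on artificial diet surface-treated with 50 μg/cm^2 compound in 90:10 acetone-water, eight wells per treatment. Trays were held 5–7 days at 25 °C, 14:10 light-dark. Percent mortality per well was averaged over eight wells.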

Where [5] appears, read: Yellow Fever Mosquito, rating class.
Where [6] appears, read: Green Peach Aphid, rating class, read-out: GPA.
The mark [7] stands for this setting: Cabbage Looper, rating class, read-out: CL.
[8] abbreviates: Beet Armyworm, rating class, read-out: BAW.
Setting [9] is: Green Peach Aphid, Table ABC / ABC-DP rating, read-out: GPA rating.
Setting [10] is: Cabbage Looper, Table ABC / ABC-DP rating, read-out: CL rating.
Where [11] appears, read: Beet Armyworm, Table ABC / ABC-DP rating, read-out: BAW rating.
[12] abbreviates: Table ABC: Biological Results, species YFM.
Setting [13] is: Table ABC: Biological Results, species GPA, read-out: GPA.
The mark [14] stands for this setting: Table ABC: Biological Results, species CL, read-out: CL.
Setting [15] is: Table ABC: Biological Results, species BAW, read-out: BAW.

We go through 13 compounds from patent publication US20250228239A1, “MOLECULES HAVING PESTICIDAL UTILITY, AND INTERMEDIATES, COMPOSITIONS, AND PROCESSES, RELATED THERETO” (priority 2024, published 2025).

Where two headings read alike, the source gives them in different places.

Consider `CC(Cl)C(=O)Nc1c(F)ccc(NC(=O)c2cc(NC(=O)[C@H]3[C@H](c4ccc(F)c(C(F)(F)F)c4)C3(Cl)Cl)ccc2Cl)c1F` (stereo partly drawn) [F1667, 2-Chloro-N-(3-(2-chloropropanamido)-2,4-difluorophenyl)-5-((1R,3R)-2,2-dichloro-3-(4-fluoro-3-(trifluoromethyl)phenyl)cyclopropane-1-carboxamido)benzamide], for which the YFM result in experiment [1] (setting [5]) was “B (More than 0 – Less than 80)”. Also, in experiment [2] (setting [6]), the pest or weed control at 200 µg/mL lay in the range of 0 to 80%. The pest or weed control at 50 µg/cm2 in experiment [3] (setting [7]) and in experiment [4] (setting [8]) was 50 to 100% in each case.
For `CCCC(=O)Nc1c(F)ccc(NC(=O)c2cc(NC(=O)[C@H]3[C@H](c4ccc(Cl)c(Cl)c4)C3(Cl)Cl)ccc2Cl)c1F` [F1473, N-(3-Butyramido-2,4-difluorophenyl)-2-chloro-5-((1R,3R)-2,2-dichloro-3-(3,4-dichlorophenyl)cyclopropane-1-carboxamido)benzamide], in experiment [1] (setting [5]), the YFM entry is reported as “A (80–100)”. Further, in experiment [2] (setting [6]), the pest or weed control at 200 µg/mL was 0 to 80%. The pest or weed control at 50 µg/cm2 in experiment [3] (setting [7]) and in experiment [4] (setting [8]) was 50 to 100% in each case.
For `C[C@H]1CC[C@@H](C(=O)Nc2c(F)ccc(NC(=O)c3cc(NC(=O)[C@H]4[C@H](c5ccc(F)c(C(F)(F)F)c5)C4(Cl)Cl)ccc3Cl)c2F)O1` [F1612, (2S,5S)-N-(3-(2-Chloro-5-((1R,3R)-2,2-dichloro-3-(4-fluoro-3-(trifluoromethyl)phenyl)cyclopropane-1-carboxamido)benzamido)-2,6-difluorophenyl)-5-methyltetrahydrofuran-2-carboxamide], the YFM result in experiment [1] (setting [5]) is reported as “A (80–100)”. For the same compound, the pest or weed control at 200 µg/mL in experiment [2] (setting [6]) fell in the range of 0 to 80%. Moreover, the pest or weed control at 50 µg/cm2 in experiment [3] (setting [7]) and in experiment [4] (setting [8]) was 50 to 100% throughout.
`Cc1c(Cl)cc(NC(=O)[C@H]2[C@H](c3ccc(F)c(Cl)c3)C2(Cl)Cl)cc1C(=O)NCC(F)(F)F` (relative stereo) [F2042, trans-3-Chloro-5-(2,2-dichloro-3-(3-chloro-4-fluorophenyl)cyclopropane-1-carboxamido)-2-methyl-N-(2,2,2-trifluoroethyl)benzamide]: the YFM rating entry in experiment [1] (Yellow Fever Mosquito) was “A (80–100)”. Moreover, the pest or weed control at 200 µg/mL in experiment [2] (setting [9]) lay in the range of 80 to 100%. Moreover, the pest or weed control at 50 µg/cm2 in experiment [3] (setting [10]) and in experiment [4] (setting [11]) was 50 to 100% throughout.
As for `CN(C(=O)C(F)F)c1c(F)ccc(NC(=O)c2cc(NC(=O)[C@H]3[C@H](c4ccc(F)c(C(F)(F)F)c4)C3(Cl)Cl)ccc2Cl)c1F` [F1386, 2-Chloro-5-((1R,3R)-2,2-dichloro-3-(4-fluoro-3-(trifluoromethyl)phenyl)cyclopropane-1-carboxamido)-N-(3-(2,2-difluoro-N-methylacetamido)-2,4-difluorophenyl)benzamide], the YFM result in experiment [1] (setting [12]) is “A (80–100)”. Further, the pest or weed control at 200 µg/mL in experiment [2] (setting [13]) fell in the range of 0 to 80%. Also, the pest or weed control at 50 µg/cm2 in experiment [3] (setting [14]) and in experiment [4] (setting [15]) was 50 to 100% throughout.
For `CCCOC(C)C(=O)Nc1c(F)ccc(NC(=O)c2cc(NC(=O)[C@H]3[C@H](c4ccc(F)c(C(F)(F)F)c4)C3(Cl)Cl)ccc2Cl)c1F` (stereo partly drawn) [F1739, 2-Chloro-5-((1R,3R)-2,2-dichloro-3-(4-fluoro-3-(trifluoromethyl)phenyl)cyclopropane-1-carboxamido)-N-(2,4-difluoro-3-(2-propoxypropanamido)phenyl)benzamide], the YFM entry in experiment [1] (setting [5]) was “A (80–100)”. The pest or weed control at 200 µg/mL in experiment [2] (setting [6]) was in the range of 0 to 80%. Further, the pest or weed control at 50 µg/cm2 in experiment [3] (setting [7]) and in experiment [4] (setting [8]) was 50 to 100% in each case.
For the compound `CCNC(=O)c1c(F)ccc(NC(=O)[C@H]2[C@H](c3ccc(F)c(Cl)c3)C2(Cl)Cl)c1F` (relative stereo) [F2016, trans-3-(2,2-Dichloro-3-(3-chloro-4-fluorophenyl)cyclopropane-1-carboxamido)-N-ethyl-2,6-difluorobenzamide], the YFM rating entry in experiment [1] (Yellow Fever Mosquito) is “A (80–100)”. In addition, in experiment [2] (setting [9]), the pest or weed control at 200 µg/mL is 80 to 100%. For the same compound, the pest or weed control at 50 µg/cm2 in experiment [3] (setting [10]) and in experiment [4] (setting [11]) was 50 to 100% in each case.
`O=C(Nc1c(F)ccc(NC(=O)C(F)F)c1F)c1cc(NC(=O)[C@H]2[C@H](c3cc(Cl)cc(Cl)c3)C2(Cl)Cl)ccc1Cl` [F1241, 2-Chloro-5-((1R,3R)-2,2-dichloro-3-(3,5-dichlorophenyl)cyclopropane-1-carboxamido)-N-(3-(2,2-difluoroacetamido)-2,6-difluorophenyl)benzamide]: the YFM result in experiment [1] (setting [12]) was “A (80–100)”. In experiment [2] (setting [13]), the pest or weed control at 200 µg/mL lay within 80 to 100%. Also, the pest or weed control at 50 µg/cm2 in experiment [3] (setting [14]) and in experiment [4] (setting [15]) was 50 to 100% throughout.
As to `CC(=O)Nc1c(F)ccc(NC(=O)c2cc(NC(=O)[C@H]3[C@H](c4cccc(C(F)(F)F)c4)C3(Cl)Cl)ccc2Cl)c1F` [F1678, N-(3-Acetamido-2,4-difluorophenyl)-2-chloro-5-((1R,3R)-2,2-dichloro-3-(3-(trifluoromethyl)phenyl)cyclopropane-1-carboxamido)benzamide], in experiment [1] (setting [5]), the YFM result is reported as “B (More than 0 – Less than 80)”. The pest or weed control at 200 µg/mL in experiment [2] (setting [6]) was 80 to 100%. The pest or weed control at 50 µg/cm2 in experiment [3] (setting [7]) and in experiment [4] (setting [8]) was 50 to 100% each time.
As for `O=C(Nc1ccc(F)c(NC(=O)C(F)(F)F)c1F)c1cc(NC(=O)[C@H]2[C@H](c3ccc(F)c(Cl)c3)C2(Cl)Cl)ccc1Cl` [F1695, 2-Chloro-5-((1R,3R)-2,2-dichloro-3-(3-chloro-4-fluorophenyl)cyclopropane-1-carboxamido)-N-(2,4-difluoro-3-(2,2,2-trifluoroacetamido)phenyl)benzamide], the YFM result in experiment [1] (setting [5]) is given as “B (More than 0 – Less than 80)”. The pest or weed control at 200 µg/mL in experiment [2] (setting [6]) lay in the range of 80 to 100%. Moreover, the pest or weed control at 50 µg/cm2 in experiment [3] (setting [7]) and in experiment [4] (setting [8]) was 50 to 100% each time.
Consider `CC(C)(C)OC(=O)Nc1cc(NC(=O)c2cc(NC(=O)[C@H]3[C@H](c4ccc(F)c(C(F)(F)F)c4)C3(Cl)Cl)ccc2Cl)c(F)c(F)c1F` [F1736, tert-Butyl (5-(2-chloro-5-((1R,3R)-2,2-dichloro-3-(4-fluoro-3-(trifluoromethyl)phenyl)cyclopropane-1-carboxamido)benzamido)-2,3,4-trifluorophenyl)carbamate], for which the YFM entry in experiment [1] (setting [5]) is given as “A (80–100)”. In addition, the pest or weed control at 200 µg/mL in experiment [2] (setting [6]) lay in the range of 0 to 80%. Further, the pest or weed control at 50 µg/cm2 in experiment [3] (setting [7]) and in experiment [4] (setting [8]) was 50 to 100% in each case.
As to `Cc1c(NC(=O)c2cc(NC(=O)[C@H]3[C@H](c4cc(Cl)cc(Cl)c4)C3(Cl)Cl)ccc2Cl)ccc([N+](=O)[O-])c1C` (relative stereo) [F1180, trans-2-chloro-5-(2,2-dichloro-3-(3,5-dichlorophenyl)cyclopropane-1-carboxamido)-N-(2,3-dimethyl-4-nitrophenyl)benzamide], the YFM result in experiment [1] (setting [12]) is “A (80–100)”. Moreover, in experiment [2] (setting [13]), the pest or weed control at 200 µg/mL lay in the range of 0 to 80%. Moreover, the pest or weed control at 50 µg/cm2 in experiment [3] (setting [14]) and in experiment [4] (setting [15]) was 50 to 100% each time.
Take `Cc1cc(NC(=O)[C@H]2[C@H](c3ccc(F)c(Cl)c3)C2(Cl)Cl)cc(C(=O)Nc2ccc(F)cc2F)c1Cl` (relative stereo) [F1185, trans-2-Chloro-5-(2,2-dichloro-3-(3-chloro-4-fluorophenyl)cyclopropane-1-carboxamido)-N-(2,4-difluorophenyl)-3-methylbenzamide]: the YFM result in experiment [1] (setting [12]) was “A (80–100)”. The pest or weed control at 200 µg/mL in experiment [2] (setting [13]) fell in the range of 80 to 100%. Moreover, the pest or weed control at 50 µg/cm2 in experiment [3] (setting [14]) and in experiment [4] (setting [15]) was 50 to 100% throughout.
